Reference: patent US20150209384A1, “ORAL PREPARATION FOR PROMOTING EXPRESSION OF TGF-BETA, ORAL PREPARATION FOR INHIBITING PRODUCTION OF PAIN-MEDIATING SUBSTANCE, AND ORAL PREPARATION FOR PREVENTING EDEMA” (KEWPIE CORPORATION, priority 2012, published 2015)

Assays:
[1] = system: rat carrageenan-induced inflammatory pain model; assay: Rat carrageenan-induced inflammatory pain model: paw edema, paw volume, exudate amount; type: in vivo; conditions: for exudate amount of the paw: FIG. 3; for paw edema: vs negative control (distilled water), hyaluronic acid 200 mg/kg/day by drinking for 4 weeks, ibuprofen 100 mg/kg oral 1 hour before induction, FIG. 1
Description: Rats (Wistar (SPF), male, four-weeks-old at the time of purchase, purchased from Japan SLC, Inc.) were acclimatized and fed for 7 days, and then grouped based on their body weights on the day before administration. The above-mentioned test solution was administered by drinking ad libitum for 4 weeks.
It should be noted that the 1% λ-carrageenan solution was stirred with a stirrer until immediately before use (induction). After that, a paw volume was measured using a paw volume measuring apparatus. In addition, blood was collected from the rat pain model under isoflurane anesthesia. After that, an exudate was collected from the hind paw, and the measurement of PGE2 and bradykinin in the exudate was performed.
The tuberal region of the pisiform bone outside the rat right hind paw was marked with marking ink so that volume measurement was uniform. Distilled water was charged up to a target water surface of a measuring chamber of the paw volume measuring apparatus. A measurer restrained the rat, and while lightly pressing the femoral region of the paw to be measured, put the paw at a position at which the mark leveled off and reached the target water surface. Then, a paw volume was recorded using a foot switch connected to the apparatus. It should be noted that the measurement of the paw volume was performed three times for each animal individual, and a mean thereof was determined.
Regarding a measured value for the paw volume, an amount of change Δ mL was determined from the following calculation equation for each individual animal, and a group mean and its standard error (SE) were calculated.
Amount of change A mL=Value at the time of each measurement after carrageenan administration−Value before (0 hours after) carrageenan administration
(§1) A 15-mL centrifugation tube, which had been measured for its tare weight in advance, was prepared, and a container having a 2-mL pipette tip cut at the tip in the centrifugation tube was prepared. The induced paw of the animal after the end of the blood collection was amputated from 1 cm above the malleolus using bone scissors or the like, and measured for its weight. The skin at the plantar site of the rat was deeply incised using a scalpel to make 2 incisions in a length direction by 4 incisions in a width direction which is perpendicular to the length direction. This paw skin tissue was placed with the toe down into the above-mentioned container, and cooling centrifugation was performed using a centrifugation machine at 3,000 rpm for 15 minutes to collect an exudate. In addition, in a non-treated group, the collection was performed from the left and right hind paws. The mass of the collected exudate was measured using an electrobalance. To the exudate after the end of the mass measurement were added 100 μL of 20 mM aspirin-containing physiological saline and 250 μL of 20 unit/mL heparin-containing physiological saline, the resultant was centrifuged, and then the supernatant was used as an exudate sample. In addition, the exudate was dispensed into a tube. The exudate sample was frozen with liquid nitrogen and cryopreserved until use.

bradykinin = assay: Measurement of bradykinin in paw exudate (EIA), rat carrageenan model; type: in vivo; conditions: for total amount of bradykinin in exudate: vs negative control, FIG. 5
Description: (§2) Rats (Wistar (SPF), male, four-weeks-old at the time of purchase, purchased from Japan SLC, Inc.) were acclimatized and fed for 7 days, and then grouped based on their body weights on the day before administration. The above-mentioned test solution was administered by drinking ad libitum for 4 weeks. After the administration by drinking for 4 weeks, the rats were selected and grouped so that there was no difference in body weight between groups at the time of carrageenan induction (see Table 1), and then the rats were each used for a pain model to be described later.
(§3) A rat pain model was produced by subcutaneously injecting 0.1 mL of a 1% A-carrageenan (manufactured by SIGMA) solution into the plantar surface of the rat hind paw with reference to methods of Ohuchi et al. (Kazuo Ohuchi, “Seibutsu Yakkagaku Jikken Koza (Biological pharmaceutical science experimental course) (Vol. 12) Inflammation and Allergy I-1”, Chapter 1, foreign matter-induced inflammation model: pp. 30-51) and Masahiro Noguchi et al. (Masahiro Noguchi, et al: Enzymologic and pharmacologic profile of loxoprofen sodium and its metabolites. Biol. Pharm. Bull. 2005.28.2075-2079). It should be noted that the 1% λ-carrageenan solution was stirred with a stirrer until immediately before use (induction). After that, a paw volume was measured using a paw volume measuring apparatus. In addition, blood was collected from the rat pain model under isoflurane anesthesia. After that, an exudate was collected from the hind paw, and the measurement of PGE2 and bradykinin in the exudate was performed.
as §1
The measurement of bradykinin in the exudate was performed using “Bradykinin, EIA Kit, High Sensitivity, Bachem Americans.” The operations were performed in conformity with the accompanying protocol of the kit.

PGE2 = assay: Measurement of PGE2 in paw exudate (ELISA), rat carrageenan model; type: in vivo; conditions: vs negative control; for total amount of PGE2 in exudate: FIG. 7; for concentration of PGE2 in exudate: FIG. 8
Description: as §2, §3, §1
The measurement of PGE2 (ELISA) in the exudate was performed using “Prostaglandin E2 Kit-Monoclonal, ACE.” The operations were performed in conformity with the accompanying protocol of the kit.

[2] = system: TGF-β1 mRNA in human colon adenocarcinoma-derived HT29 cells; assay: TGF-β expression promoting action in HT29 cells (TGF-β1 mRNA, real-time PCR); type: cell-based; conditions: hyaluronic acid 0.01 mg/ml, LPS 200 ng/mL added 1 hour later, 24 hours after addition of hyaluronic acid, control = 1, FIG. 11
Description: In order to confirm the TGF-β expression promoting action of hyaluronic acid in human colon adenocarcinoma-derived HT29 cells (purchased from DS Pharma Biomedical Co., Ltd.), the measurement of the production amount of TGF-β mRNA in the case of treating HT29 cells with hyaluronic acid was performed by the following method.
Hyaluronic acid was added to a culture supernatant, and 1 hour after that, a lipopolysaccharide (LPS) was added at a concentration of 200 ng/mL. 23 hours after that, mRNA of cells was collected, and the determination of TGF-β1 mRNA using real-time PCR equipment (Mx 3005, Agilent Technologies) was performed. First, cDNA was synthesized from mRNA by reverse transcription, and a PCR reaction was performed using the cDNA. That is, an amplification reaction involving repeating thermal denaturation (95° C., 10 seconds) and annealing (60° C., 20 seconds) 40 times was performed, and simultaneously, DNA amplification was measured by monitoring fluorescence from CybrGreen to be conjugated with DNA, and determination in the case of defining the mRNA amount of a control as 1 was performed. The human TGF-31 primers used were designed with the software Primer BLAST made available to the public by the National Center for Biotechnology Information (NCBI). Their sequences are 5′-[…]-3′ (Forward) and 5′-[…]-3′ (Reverse). […]

IL-10 = assay: Measurement of IL-10 in plasma, rat carrageenan model; type: in vivo; conditions: oral hyaluronic acid 200 mg/kg/day 4 weeks
Description: as §2
(§4) The rat pain model under anesthesia with isoflurane (manufactured by Mylan Pharmaceuticals, Inc.) was subjected to abdominal section, and blood was collected through the caudal vena cava of the abdomen. A 5-mL disposable injection syringe filled with heparin sodium (Wako Pure Chemical Industries, Ltd.) and a 22-G injection needle were used for the blood collection. Plasma was rapidly separated from the collected blood using a centrifuge, dispensed into a tube, and cryopreserved until use.
The measurement of IL-10 in plasma was performed using “Quantikine Rat IL-10 (R & D Systems, Inc.).” The operations were performed in conformity with the accompanying protocol of the kit.

[3] = Measurement of concentration of hyaluronic acid in plasma; type: in vivo, rat
Description: as §2, §4
The measurement of the concentration of hyaluronic acid in plasma was performed using “Hyaluronan Assay Kit (Seikagaku Biobusiness Corporation).”
The concentrations of hyaluronic acid in plasma of the negative control (distilled water-administered group) and the test solution-administered group were measured. The concentrations of hyaluronic acid in plasma were measured before carrageenan induction and 6 hours and 8 hours after carrageenan induction.

TGF-β1 = assay: Measurement of TGF-β1 in plasma (ELISA), rat carrageenan model; type: in vivo; conditions: 6 hours after carrageenan induction, FIG. 4
Description: as §2
A rat pain model was produced by subcutaneously injecting 0.1 mL of a 1% A-carrageenan (manufactured by SIGMA) solution into the plantar surface of the rat hind paw with reference to methods of Ohuchi et al. (Kazuo Ohuchi, “Seibutsu Yakkagaku Jikken Koza (Biological pharmaceutical science experimental course) (Vol. 12) Inflammation and Allergy I-1”, Chapter 1, foreign matter-induced inflammation model: pp. 30-51) and Masahiro Noguchi et al. (Masahiro Noguchi, et al: Enzymologic and pharmacologic profile of loxoprofen sodium and its metabolites. Biol. Pharm. Bull. 2005.28.2075-2079). It should be noted that the 1% λ-carrageenan solution was stirred with a stirrer until immediately before use (induction). After that, a paw volume was measured using a paw volume measuring apparatus. […]

[4] = 6 hours after carrageenan induction
[5] = 6 hours after carrageenan induction, vs negative control, hyaluronic acid 200 mg/kg/day 4 weeks, ibuprofen 100 mg/kg oral
[6] = 3 hours after carrageenan induction
[7] = 6 hours after carrageenan induction, vs negative control (distilled water), FIG. 6

Molecule | exudate amount of the paw ([1]; 3 hours after carrageenan induction, vs negative control, ibuprofen 100 mg/kg oral) | paw edema [1, 4] | exudate amount of the paw [1, 5] | total amount of bradykinin in exudate (bradykinin; [6]) | concentration of bradykinin in exudate (bradykinin; [7]) | total amount of bradykinin in exudate (bradykinin; [4]) | total amount of PGE2 in exudate (PGE2; [6]) | concentration of PGE2 in exudate (PGE2; [6]) | total amount of PGE2 in exudate (PGE2; [4]) | concentration of PGE2 in exudate (PGE2; [4]) | amount of TGF-β1 mRNA relative to control (no addition of hyaluronic acid) [2] [times] | increase in IL-10 in plasma (IL-10) | paw volume ([1]; 6 hours after carrageenan induction, vs negative control, hyaluronic acid 200 mg/kg/day 4 weeks, ibuprofen 100 mg/kg oral, FIG. 2) | concentration of bradykinin in exudate (bradykinin; 3 hours after carrageenan induction, vs distilled water group, FIG. 6) | concentration of bradykinin in exudate compared to positive control (ibuprofen) (bradykinin; 3 hours and 6 hours after carrageenan induction, FIG. 6) | concentration of hyaluronic acid in plasma ([3]; 6 hours after carrageenan induction, FIG. 9) | concentration of hyaluronic acid in plasma ([3]; 8 hours after carrageenan induction, FIG. 9) | concentration of hyaluronic acid in plasma ([3]; before carrageenan induction, after continuous ingestion for 4 weeks (200 mg/kg/day), FIG. 9 left panel) | concentration of TGF-β in plasma compared to positive control (ibuprofen) (TGF-β1; same timing) | concentration of TGF-β in plasma (TGF-β1; hyaluronic acid 200 mg/kg/day 4 weeks)
CC(C)Cc1ccc(C(C)C(=O)O)cc1 (centres unmarked) [ibuprofen, reference compound] | significantly smaller than those in the negative control | milder than in the negative control | significantly smaller than those in the negative control | smaller than those in the negative control | significantly smaller concentration of bradykinin than that in the negative control | smaller than those in the negative control (statistically significant 6 hours after carrageenan induction) | smaller than those in the negative control | significantly smaller than those in the negative control | smaller than those in the negative control (statistically significant 6 hours after carrageenan induction) | significantly smaller than those in the negative control | – | – | – | – | – | – | – | – | – | –
hyaluronic acid [listing 1 of 2 here] | – | – | – | – | – | – | – | – | – | – | 2.14 | – | – | – | – | – | – | – | – | –
hyaluronic acid [listing 2 of 2 here] | – | milder than in the negative control | smaller than that in the negative control | – | significantly smaller than those in the distilled water group | significantly smaller than that in the negative control | – | – | significantly smaller than that in the negative control | significantly smaller than that in the negative control | – | not observed | significantly smaller than that in the negative control | significantly smaller than those in the distilled water group | lower than those in the positive control | almost no change | almost no change | did not cause any change | higher than the concentration of TGF-β in the positive control | increased remarkably
